Test results published in patent publication US20250340519A1, “RADIOLABELLED COMPOUND” (OXFORD UNIVERSITY INNOVATION LIMITED, priority 2018, published 2025).
Several values for one entry are separate records, joined by “and”; a condition that tells them apart may be missing. Equal entries are not always repeated.

Assays:
Panc-1 xenograft = assay: Ex vivo biodistribution in Panc-1 xenograft bearing mice
Experimental: Animals were housed in IVC cages in sex-matched groups up to 5 per cage, in an artificial day-night cycle facility, with ad libitum access to food and water. […] CaNT xenografts were generated by harvesting CaNT tumours from donor animals, and injecting a tumour homogenate subcutaneously in the flank of wild type CBA/Carl mice. Tumours were irradiated (10 Gy, 2 Gy/min) using a 300 kV X-ray device.
Biodistribution studies, where selected tissues were harvested, were performed 1 h post injection. Some animals were also administered an excess of cold, unlabelled olaparib for evaluating the specificity of tumour uptake. EF5, a hypoxia-selective marker, was injected 2 h before culling of the animal. Digital autoradiography was performed on tumour sections. Image analysis was performed using PMOD.
Cells were harvested using trypsin, washed twice using PBS, and reconstituted in DMEM. […] Tumour volumes (V) were calculated after calliper measurement using the following equation: V=(a^2×b)/2, where a is the width of the tumour and b the length (small and large diameters, respectively). The individual relative tumour volume (RTV) was defined as Vt/Vo, where Vt is the volume at a given time and Vo at the start of treatment. Animals were entered in in vivo studies when their tumour was at least 200 mm^3.
Two hours prior to PET/CT imaging, animals were exposed to X-irradiation of the tumour (10 Gy or sham) (see schedule in FIG. 13). Radiation was delivered using a Gulmay 320 kV X-irradiator; 2.0 Gy/min. […] Naïve CBA/Carl mice, not bearing tumours, were not irradiated, nor was EF5 administered.
Dynamic PET/CT images were acquired using a VECTor ^4CT integrated PET/CT system. Mice were anaesthetised by 4% isoflurane gas (0.5 L/min O2) and placed on a custom-built imaging cradle in a prone position.
After PET/CT image acquisition, animals were euthanized by cervical dislocation and selected organs, tissues and blood were removed. […] Counts per minute were converted into MBq using a calibration curve generated from known standards. Values were decay-corrected to the time of injection, and the percentage of the injected dose per gram (% ID/g) of each tissue was calculated.

PANC-1 cells = assay: Cell uptake of [18F]olaparib in PANC-1 cells; type: cell-based, human; details: radiation dose-dependent
Experimental: PARP1 levels in a limited selection of PDAC cell lines were determined using Western blot and confirmed by immunofluorescence microscopy. […] Uptake was reported as a percentage of the total amount added, per mg of total protein recovered from the isolated cells, determined by BCA assay. Specificity of uptake was determined by blocking olaparib binding sites using an excess of cold, unlabeled olaparib, or other PARP inhibitors (rucaparib, talazoparib).
Cell uptake of ^18F-olaparib in Panc-1, MiaPaCa-2 and Capan-1 cells was determined as previously described (Cornelissen, B., Hu, M., McLarty, K., Costantini, D. & Reilly, R. M.
Cellular penetration and nuclear importation properties of 111In-labeled and 123I-labeled HIV-1 tat peptide immunoconjugates in BT-474 human breast cancer cells. Nucl Med Biol 34, 37-46, 2007; Thurber, G. M., Reiner, T., Yang, K. S., Kohler, R. H. & Weissleder, R. Effect of small-molecule modification on single-cell pharmacokinetics of PARP inhibitors. Molecular cancer therapeutics 13, 986-995, 2014; Reiner, T., et al. Imaging therapeutic PARP inhibition in vivo through bioorthogonally developed companion imaging agents. Neoplasia 14, 169-177, 2012). Aliquots of Panc-1, MiaPaca-2, and Capan-1 cells (1.5×10^5 cells/well) were seeded in 24-well plates in warm cell culture medium (500 μL) and the cells were allowed to adhere overnight. Cells were irradiated (10 Gy; dose rate 0.8 Gy/min) or sham-irradiated and then returned to an incubator (37° C., 5% CO2) for 2 h. […] In the blocking groups, non-radioactive olaparib, talazoparib, or rucaparib were also added in increasing concentrations (10 pM-10 μM. After 30 or 60 minutes, the cell culture medium was removed and combined with two washes (500 μL) of cell culture medium. The remaining monolayer of cells was then lysed with 0.1 M sodium hydroxide for 20 minutes at room temperature. The amount of radioactivity contained within the cell culture medium and the cell lysate fractions was measured using a gamma counter. Protein levels from parallel plates were quantified using a Pierce BCA protein assay kit (Thermo Scientific) according to the manufacturer's recommendations and bovine serum albumin was used as the protein standard. Cell uptake levels of [^18F]-olaparib were normalised to percent of the total added radioactivity per milligram protein. […] IC50 values were calculated using GraphPad Prism software (GraphPad Software, San Diego, CA, USA). […]
Aliquots of Panc-1, MiaPaca-2, and Capan-1 cells (7.5×10^4 cells/well) were seeded in 24-well plates in warm cell culture medium (500 μL). […] The amount of radioactivity contained within the cell culture medium and the cell lysate fractions was measured using a gamma counter. […]

- tumour uptake (group mean) (Panc-1 xenograft; PANC-1 xenografts, 1 h after i.v. bolus, tracer alone): 3.16±0.36 % ID/g
- increase of tumour uptake after irradiation (Panc-1 xenograft; PANC-1 xenografts, 2 h after 10 Gy vs non-irradiated): 70%
- tumour uptake (group mean) (Panc-1 xenograft; PANC-1 xenografts, 2 h after irradiation (10 Gy)): 5.35±1.16 % ID/g
- tumour uptake (group mean) (Panc-1 xenograft; PANC-1 xenografts, co-injection of excess cold olaparib): 1.20±0.17 % ID/g
Structure (SMILES): O=C(c1cc(Cc2n[nH]c(=O)c3ccccc23)ccc1[18F])N1CCN(C(=O)C2CC2)CC1 [[^18F]olaparib]
- Ex vivo biodistribution Small intestine (Panc-1 xenograft; Panc-1 xenograft mice, + IR (10 Gy), 1 h p.i., individual animals): 65.1 % ID/g and 113 % ID/g and 95.2 % ID/g
- [^18F]olaparib uptake after gamma-irradiation (PANC-1 cells): increased
